# In PubChem BioAssay AID743165 (Broad Institute, 2013):
# System: Mycobacterium tuberculosis replicating, CFU imaging
# Test: IC90 against replicating M. tuberculosis, dose response, CFU by imaging, dry powder, 7108-03 (AID 743165)
row,Structure (SMILES),IC90 [µM]
1,Cn1c(NC(=O)c2ccccc2)nc2ccccc21,< 48
2,CCOC(=O)NC(=O)c1ccsc1NC(=O)c1nc2ccccc2s1,< 8
